Values of other authors, collected in patent publication US20140018251A1, “Methods for Predicting Response to Anti-Cancer Therapy in Cancer Patients” (Stichting Het Nederlands Kanker Instituut, priority 2010, published 2014).

Tested on: mouse mammary tumors lacking BRCA1

N.N.[Cl][Pt][Cl] [cisplatin]
sensitivity of tumors: extremely sensitive
